# Reference: paper PMC7749516, “Safety and nonclinical and clinical pharmacokinetics of PC945, a novel inhaled triazole antifungal agent” (Pharmacology Research & Perspectives, 2020)
# Several values for one entry are separate records, joined by “and”; a condition that tells them apart may be missing. Equal values may be shown once.
# Tests used:
# CYP3A4/5 = assay: CYP inhibition in pooled human liver microsomes; format: in vitro ADME
# Procedure: Microsomal reactions were terminated by adding 100 μL of cold (4°C) methanol containing appropriate internal standard. Aliquots (150 μL) of each sample were centrifuged and the supernatant was used for substrate analysis by ultra‐performance liquid chromatography with tandem mass spectrometry (UPLC‐MS/MS) on the day of incubations.
# Change in substrate concentration was measured to determine the extent of CYP‐isoform inhibition. The 30‐minute preincubations were performed to determine whether there was time‐dependent inhibition of any CYP isoform (CYP1A2, 2B6, 2C8, 2C9, 2C19, 2D6, and 3A4/5). Untreated control contained only solvent, dimethyl sulfoxide (≤0.5% [v/v]).
# [1] = Clinical pharmacokinetics, repeat inhaled dose in healthy subjects (Cohort 2); format: in vivo, human
# Text: (§1) Part one consisted of a single dose escalation study (Cohort 1) and a repeat dose study (Cohort 2) of inhaled PC945 in healthy subjects. Part two comprised a single dose study of inhaled PC945 in subjects with mild asthma (Cohort 3). The doses selected were predicted to achieve target lung concentrations above the IC90/MIC90 for A. fumigatus (based on data from a range of in vitro and in vivo systems) throughout a 24‐hour period and with a suitable safety margin based on animal toxicology data.
# Nine healthy subjects (four males and five females; mean age: 33.2 years, mean weight: 66.5 kg, mean BMI: 23.53 kg/m^2) whose forced expiratory volume over 1 second (FEV1) and forced vital capacity (FVC) were ≥80% of predicted values with an FEV1/FVC ratio >0.7, received once daily doses of PC945 5 mg or placebo for 7 days (Cohort 2, PC945:placebo = 2:1).
# Serial blood samples were collected to determine plasma PC945 concentrations. For the single dose study in healthy subjects and in subjects with mild asthma, blood samples were collected predose and at 0.25, 0.5, 1, 2, 4, 6, 8, 24, 30, and 48 hours postend of inhalation and at the follow‐up visit. For the repeat dose study, blood samples were collected (a) predose and at 0.25, 0.5, 1, 2, 4, 6, 8, 10, 12, and 24 hours postend of inhalation on Days 1 and 7, and 30 and 48 hours on Day 7; (b) predose on Days 5 and 6; (c) at the follow‐up visit.
# Attainment of steady state was assessed by visual inspection of the predose plots during the 7‐day treatment period in human subjects.
# [2] = First-in-human safety and tolerability (adverse events, spirometry); format: in vivo; conditions: for No. of subjects with treatment‐emergent adverse events attributed to study drug / Subjects with drug-related adverse event: Cough / Subjects with drug-related adverse event: Diarrhea / Subjects with drug-related adverse event: Dizziness / Subjects with drug-related adverse event: Fatigue / Subjects with drug-related adverse event: Feces soft / Subjects with drug-related adverse event: Headache / Subjects with drug-related adverse event: Lethargy / Subjects with drug-related adverse event: Muscle spasms / Subjects with drug-related adverse event: Nausea / Subjects with drug-related adverse event: Productive cough / Subjects with drug-related adverse event: Throat tightness: N = 6
# Procedure: This PC945 first‐in‐human clinical trial (ClinicalTrials.gov Identifier: NCT02715570) was a two‐part randomized, placebo‐controlled study to assess the safety and tolerability of PC945 in both healthy subjects and subjects with mild asthma, conducted at Parexel Early Phase Clinical Unit (Harrow, UK). The study was considered single‐blind as the appearance of active and placebo doses were different, however, it was conducted in a double‐blind manner (employing separate dosing and assessment teams).
# as §1
# Safety was evaluated based on assessments of adverse events, physical examination, vital signs, 12‐lead electrocardiogram, spirometry and clinical laboratory tests. The verbatim terms used to identify adverse events were coded using the Medical Dictionary for Regulatory Activities (version 20.1). All adverse events were mapped to system organ class and preferred term.
# Spirometry parameters (FEV1 and FVC) were measured in all subjects to evaluate the local tolerability and potential for bronchospasm of PC945 in accordance with American Thoracic Society/European Respiratory Society guidelines. Predicted values were calculated using National Health and Nutrition Examination Survey reference equations. ^18 , ^19
# A. fumigatus infection = system: A. fumigatus infection; parameters: method as in PMID 31263150; conditions: in vitro human alveolus bilayer model; cited from earlier work
# [3] = In vitro plasma protein binding; format: in vitro ADME; conditions: 0.1‐50 µmol/L
# Procedure: Plasma protein binding of PC945 was determined by […] in pooled plasma samples from human, dog, rat, and mouse. PC945 was tested at 0.1, 1, 5, 25, and 50 µmol/L in plasma for each species. PC945‐containing plasma samples were centrifuged at 238 859 g for 20 hours at 37°C. Supernatant was removed and diluted. The concentration of unbound PC945 was determined using LC‐MS/MS, from which the extent of protein binding was calculated.
# [4] = substrate midazolam, 30‐minute preincubation
# [5] = healthy subjects, 5 mg once daily, Day 1, geometric mean (CV%)
# [6] = healthy subjects, 5 mg once daily, Day 7, geometric mean (CV%)
# [7] = Cohort 1 healthy, single dose 0.5 mg
# [8] = Cohort 1 healthy, single dose 2 mg
# [9] = Cohort 1 healthy, single dose 5 mg
# [10] = Cohort 1 healthy, single dose 10 mg
# [11] = Cohort 2 healthy, 5 mg once daily for 7 days
# [12] = Cohort 3 mild asthma, single dose 5 mg
structure (smiles),measurement,setting,value
Cc1cc(N2CCN(c3ccc(C(=O)Nc4ccc(F)cc4)cc3)CC2)ccc1OC[C@@H]1CO[C@@](Cn2cncn2)(c2ccc(F)cc2F)C1 [PC945],Shift in potency for CYP3A4/5 following preincubation,CYP3A4/5,fivefold
same,"IC50, CYP3A4/5",CYP3A4/5; microsomes,0.168 µg/mL
same,IC50,CYP3A4/5; [4],17 nM
same,"IC50, CYP3A4/5",CYP3A4/5; [4],0.0116 µg/mL
same,IC50,"CYP3A4/5; substrate midazolam, without preincubation, pooled human liver microsomes",85 nM
same,AUC0–24h,[1]; [5],6510 (60.0) pg*h/mL
same,C max,[1]; [5],462 (68.0) pg/mL
same,t max,"[1]; healthy subjects, 5 mg once daily, Day 1, median (range)",2 h and 2.10 (2.08‐4.08) h
same,time of C max postend of inhalation,"[1]; healthy subjects, 5 mg once daily, Day 7",45 min
same,C max,[1]; [6],951 (58.7) pg/mL
same,t ½,[1]; [6],132 (22.7) h
same,t max,"[1]; healthy subjects, 5 mg once daily, Day 7, median (range)",0.745 (0.240‐10.1) h
same,Cmax,"[1]; human, inhaled doses, read-out: C max values obtained with inhaled doses",< 2 nM
same,Predicted time to steady state,"[1]; once daily dosing, human",approximately 5 weeks
same,No. of subjects with treatment‐emergent adverse events attributed to study drug,[2]; [7],1 (16.67) n (%)
same,Subjects with drug-related adverse event: Cough,[2]; [7],0 n (%)
same,Subjects with drug-related adverse event: Diarrhea,[2]; [7],0 n (%)
same,Subjects with drug-related adverse event: Dizziness,[2]; [7],0 n (%)
same,Subjects with drug-related adverse event: Fatigue,[2]; [7],1 (16.67) n (%)
same,Subjects with drug-related adverse event: Feces soft,[2]; [7],0 n (%)
same,Subjects with drug-related adverse event: Headache,[2]; [7],0 n (%)
same,Subjects with drug-related adverse event: Lethargy,[2]; [7],0 n (%)
same,Subjects with drug-related adverse event: Muscle spasms,[2]; [7],0 n (%)
same,Subjects with drug-related adverse event: Nausea,[2]; [7],0 n (%)
same,Subjects with drug-related adverse event: Productive cough,[2]; [7],0 n (%)
same,Subjects with drug-related adverse event: Throat tightness,[2]; [7],0 n (%)
same,No. of subjects with treatment‐emergent adverse events attributed to study drug,[2]; [8],0 n (%)
same,Subjects with drug-related adverse event: Cough,[2]; [8],0 n (%)
same,Subjects with drug-related adverse event: Diarrhea,[2]; [8],0 n (%)
same,Subjects with drug-related adverse event: Dizziness,[2]; [8],0 n (%)
same,Subjects with drug-related adverse event: Fatigue,[2]; [8],0 n (%)
same,Subjects with drug-related adverse event: Feces soft,[2]; [8],0 n (%)
same,Subjects with drug-related adverse event: Headache,[2]; [8],0 n (%)
same,Subjects with drug-related adverse event: Lethargy,[2]; [8],0 n (%)
same,Subjects with drug-related adverse event: Muscle spasms,[2]; [8],0 n (%)
same,Subjects with drug-related adverse event: Nausea,[2]; [8],0 n (%)
same,Subjects with drug-related adverse event: Productive cough,[2]; [8],0 n (%)
same,Subjects with drug-related adverse event: Throat tightness,[2]; [8],0 n (%)
same,No. of subjects with treatment‐emergent adverse events attributed to study drug,[2]; [9],2 (33.33) n (%)
same,Subjects with drug-related adverse event: Cough,[2]; [9],0 n (%)
same,Subjects with drug-related adverse event: Diarrhea,[2]; [9],0 n (%)
same,Subjects with drug-related adverse event: Dizziness,[2]; [9],1 (16.67) n (%)
same,Subjects with drug-related adverse event: Fatigue,[2]; [9],0 n (%)
same,Subjects with drug-related adverse event: Feces soft,[2]; [9],1 (16.67) n (%)
same,Subjects with drug-related adverse event: Headache,[2]; [9],1 (16.67) n (%)
same,Subjects with drug-related adverse event: Lethargy,[2]; [9],1 (16.67) n (%)
same,Subjects with drug-related adverse event: Muscle spasms,[2]; [9],1 (16.67) n (%)
same,Subjects with drug-related adverse event: Nausea,[2]; [9],1 (16.67) n (%)
same,Subjects with drug-related adverse event: Productive cough,[2]; [9],0 n (%)
same,Subjects with drug-related adverse event: Throat tightness,[2]; [9],0 n (%)
same,No. of subjects with treatment‐emergent adverse events attributed to study drug,[2]; [10],2 (33.33) n (%)
same,Subjects with drug-related adverse event: Cough,[2]; [10],0 n (%)
same,Subjects with drug-related adverse event: Diarrhea,[2]; [10],1 (16.67) n (%)
same,Subjects with drug-related adverse event: Dizziness,[2]; [10],1 (16.67) n (%)
same,Subjects with drug-related adverse event: Fatigue,[2]; [10],0 n (%)
same,Subjects with drug-related adverse event: Feces soft,[2]; [10],0 n (%)
same,Subjects with drug-related adverse event: Headache,[2]; [10],1 (16.67) n (%)
same,Subjects with drug-related adverse event: Lethargy,[2]; [10],0 n (%)
same,Subjects with drug-related adverse event: Muscle spasms,[2]; [10],0 n (%)
same,Subjects with drug-related adverse event: Nausea,[2]; [10],1 (16.67) n (%)
same,Subjects with drug-related adverse event: Productive cough,[2]; [10],0 n (%)
same,Subjects with drug-related adverse event: Throat tightness,[2]; [10],0 n (%)
same,No. of subjects with treatment‐emergent adverse events attributed to study drug,[2]; [11],2 (33.33) n (%)
same,Subjects with drug-related adverse event: Cough,[2]; [11],0 n (%)
same,Subjects with drug-related adverse event: Diarrhea,[2]; [11],0 n (%)
same,Subjects with drug-related adverse event: Dizziness,[2]; [11],0 n (%)
same,Subjects with drug-related adverse event: Fatigue,[2]; [11],0 n (%)
same,Subjects with drug-related adverse event: Feces soft,[2]; [11],0 n (%)
same,Subjects with drug-related adverse event: Headache,[2]; [11],1 (16.67) n (%)
same,Subjects with drug-related adverse event: Lethargy,[2]; [11],0 n (%)
same,Subjects with drug-related adverse event: Muscle spasms,[2]; [11],0 n (%)
same,Subjects with drug-related adverse event: Nausea,[2]; [11],1 (16.67) n (%)
same,Subjects with drug-related adverse event: Productive cough,[2]; [11],0 n (%)
same,Subjects with drug-related adverse event: Throat tightness,[2]; [11],0 n (%)
same,No. of subjects with treatment‐emergent adverse events attributed to study drug,[2]; [12],0 n (%)
same,Subjects with drug-related adverse event: Cough,[2]; [12],0 n (%)
same,Subjects with drug-related adverse event: Diarrhea,[2]; [12],0 n (%)
same,Subjects with drug-related adverse event: Dizziness,[2]; [12],0 n (%)
same,Subjects with drug-related adverse event: Fatigue,[2]; [12],0 n (%)
same,Subjects with drug-related adverse event: Feces soft,[2]; [12],0 n (%)
same,Subjects with drug-related adverse event: Headache,[2]; [12],0 n (%)
same,Subjects with drug-related adverse event: Lethargy,[2]; [12],0 n (%)
same,Subjects with drug-related adverse event: Muscle spasms,[2]; [12],0 n (%)
same,Subjects with drug-related adverse event: Nausea,[2]; [12],0 n (%)
same,Subjects with drug-related adverse event: Productive cough,[2]; [12],0 n (%)
same,Subjects with drug-related adverse event: Throat tightness,[2]; [12],0 n (%)
same,Deaths or serious adverse events,[2]; all cohorts,no deaths or serious adverse events
same,Changes in lung function,[2]; healthy subjects,No clinically significant changes in lung function
same,Tolerability,"[2]; single doses up to 10 mg and 5 mg daily for 7 days in healthy subjects, single 5 mg in mild asthma",well tolerated
same,Acute bronchospasm or significant change in lung function (>15% change from baseline),"[2]; subjects with mild asthma, single 5 mg",no evidence of acute bronchospasm or significant change in lung function
same,Irritancy,"[2]; subjects with mild asthma, single dose 5 mg",No evidence of irritancy
same,Effect on A. fumigatus infection,A. fumigatus infection,inhibit A. fumigatus infection
same,Mean percentage protein bound,[3]; dog plasma,91% and 91.1%
same,Mean percentage protein bound,[3]; human plasma,96.6%
same,Mean percentage protein bound,[3]; mouse plasma,96.2%
same,Mean percentage protein bound,[3]; rat plasma,97.8%
